Patent US7317028B2, “Cell differentiation inducer” (Schering Aktiengesellschaft, priority 1996, dated 2008)

Columns and labels:
A2780 cells = test: Test for induction of differentiation in A2780 cells (ALP activity, ALPmin); assay type: cell-based, human; conditions: A2780 cells, 3 days incubation, minimum concentration of the drug inducing increase of ALP activity
Description: Increase of alkaline phosphatase (ALP) activity is known as an indicator for differentiation of human colon cancer cells. […] Thus, differentiation inducing action was evaluated using ALP activity as an indicator.
To each well of a 96-well plate was placed 0.1 mL of A2780 cells (15,000 cells/well) and the next day was added 0.1 mL of a sequential dilute of test solution with the medium. […] The reaction was quenched with 0.05 mL/well of 3N sodium hydroxide aq. For each well, an absorbance at 405 nm was measured to determine the minimum concentration of the drug inducing increase of ALP activity (ALPmin).

SMILES | melting point | further results
Nc1ccccc1NC(=O)c1ccc(CNC(=O)Oc2cccnc2)cc1 | 209 °C (dec.) | –
Nc1ccccc1NC(=O)c1ccc(CNC(=O)c2ccccn2)cc1 [Example 12, N-(2-aminophenyl)-4-(N-picolinoylaminomethyl)benzamide] | 173 to 178 °C (dec.) | –
Nc1ccccc1NC(=O)c1ccc(CNC(=O)c2cccnc2)cc1 [Example 14, N-(2-aminophenyl)-4-(N-nicotinoylaminomethyl)benzamide] | 193 to 196 °C | –
Nc1ccccc1NC(=O)c1ccc(CNC(=O)c2ccncc2)cc1 [Example 19, N-(2-aminophenyl)-4-(N-isonicotinoylaminomethyl)benzamide] | 234 to 237 °C (dec.) | –
Nc1ccccc1NC(=O)c1ccc(CNC(=O)c2cnccn2)cc1 [Example 20, N-(2-aminophenyl)-4-[N-(pyrazin-2-yl)carbonylaminomethyl]benzamide] | 207 °C (dec.) | –
Nc1ccccc1NC(=O)c1ccc(CNC(=O)c2cccs2)cc1 [Example 21, N-(2-aminophenyl)-4-[N-(thiophen-2-yl)carbonylaminomethyl]benzamide] | 202 to 205 °C (dec.) | –
Nc1ccccc1NC(=O)c1ccc(CNC(=O)c2ccco2)cc1 [Example 22, N-(2-aminophenyl)-4-[N-(furan-2-yl)carbonylaminomethyl]benzamide] | 197 °C (dec.) | –
CC(Oc1cccnc1)C(=O)NCc1ccc(C(=O)Nc2ccccc2N)cc1 (stereo not drawn) [Example 47, N-(2-aminophenyl)-4-[N-[2-(pyridin-3-yl)oxy]propionylaminomethyl]benzamide] | 171 to 173 °C (dec.) | –
Nc1ccccc1NC(=O)c1ccc(CNC(=O)OCC2=CN(c3ccccc3)CO2)cc1 [Example 62, N-(2-aminophenyl)-4-[N-(3-phenyloxazol-5-yl)methoxycarbonylaminomethyl]benzamide] | 192 to 195 °C | –
Cc1ccc(O)c(NC(=O)c2ccc(CNC(=O)OCc3cccnc3)cc2)c1 [Example 84, N-(2-hydroxy-5-methylphenyl)-4-[N-(pyridin-3-yl)methoxycarbonylaminomethyl]benzamide] | 155 to 155.5 °C | –
Nc1ccccc1NC(=O)Cc1cc2cc(NC(=O)OCc3cccnc3)ccc2o1 [Example 87, N-(2-aminophenyl)-5-[(pyridin-3-yl)methoxycarbonyl]aminobenzofuran-2-carboxyamide] | 173 to 174 °C | –
Nc1ccccc1NC(=O)c1cc2cc(NC(=O)CCc3cccnc3)ccc2o1 [Example 128, N-(2-aminophenyl)-5-[3-(pyridin-3-yl)propionamide]benzofuran-2-carboxyamide] | – | minimal effective concentration (A2780 cells): 0.1 µM
Nc1ccc(OCC(=O)Nc2ccc(C(=O)Nc3ccccc3N)cc2)cc1 [Example 135, N-(2-aminophenyl)-4-[(4-aminophenoxyacetyl)amino]benzamide] | – | minimal effective concentration (A2780 cells; Homo sapiens, 72 h): 3 µM
Nc1ccccc1NC(=O)c1ccc(-n2cc(COc3ccccc3)oc2=O)cc1 [Example 136, N-(2-aminophenyl)-4-(5-phenoxymethyl-1,3-oxazolin-2-on-3-yl)benzamide] | – | minimal effective concentration (A2780 cells; Homo sapiens, 72 h): 1 µM
Nc1ccccc1NC(=O)c1ccc(N2CC(COc3ccc([N+](=O)[O-])cc3)OC2=O)cc1 (stereo not drawn) [Example 137, N-(2-aminophenyl)-4-[5-(4-nitrophenoxy)methyl-1,3-oxazolin-2-on-3-yl-yl]benzamide] | – | minimal effective concentration (A2780 cells): 1 µM
Nc1ccccc1NC(=O)c1ccc(-n2cc(COc3cccnc3)oc2=O)cc1 [Example 139, N-(2-aminophenyl)-4-[5-(pyridin-3-yl)oxymethyl-1,3 oxazolin-2-on-3-yl]benzamide] | – | minimal effective concentration (A2780 cells; Homo sapiens, 72 h): 0.3 µM
Nc1ccccc1NC(=O)c1ccc(-n2cc(COc3ccccn3)oc2=O)cc1 [Example 143, N-(2-aminophenyl)-4-[5-(pyridin-2-yl)oxymethyl-1,3-oxazolin-2-on-3-yl]benzamide] | – | minimal effective concentration (A2780 cells; Homo sapiens, 72 h): 3 µM
Nc1ccccc1NC(=O)c1ccc(CN2CCN(Cc3cccnc3)C2=O)cc1 [Example 145, N-(2-aminophenyl)-4-[3-(pyridin-3-yl)methylimidazolin-2-on-1-yl]methylbenzamide] | – | minimal effective concentration (A2780 cells): 3 µM
